From paper PMC5995969, “Structural basis for the regulation of human 5,10-methylenetetrahydrofolate reductase by phosphorylation and S-adenosylmethionine inhibition” (Nature Communications, 2018)

Assays:
[1] = target: T1, 5,10-methylenetetrahydrofolate reductase (MTHFR) (Homo sapiens, UniProt P42898, A368L); assay: differential scanning fluorimetry; aSEC; type: binding
T1 construct: HsMTHFR348–656
T1 sequence (P42898 348-656 A368L): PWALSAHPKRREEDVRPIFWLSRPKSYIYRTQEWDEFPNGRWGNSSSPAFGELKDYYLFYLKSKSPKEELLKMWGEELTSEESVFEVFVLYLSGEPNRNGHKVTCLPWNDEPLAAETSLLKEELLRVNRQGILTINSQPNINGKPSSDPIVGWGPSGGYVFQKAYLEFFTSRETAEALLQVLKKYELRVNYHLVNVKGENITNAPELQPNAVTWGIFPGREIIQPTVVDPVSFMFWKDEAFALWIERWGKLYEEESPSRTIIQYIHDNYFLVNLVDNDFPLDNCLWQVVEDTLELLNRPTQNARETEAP

mouse MTHFR = target: T2, mouse MTHFR (Mus musculus, UniProt Q9WU20); assay: analytical size exclusion chromatography / DSF; type: binding
T2 sequence (Q9WU20 357-654): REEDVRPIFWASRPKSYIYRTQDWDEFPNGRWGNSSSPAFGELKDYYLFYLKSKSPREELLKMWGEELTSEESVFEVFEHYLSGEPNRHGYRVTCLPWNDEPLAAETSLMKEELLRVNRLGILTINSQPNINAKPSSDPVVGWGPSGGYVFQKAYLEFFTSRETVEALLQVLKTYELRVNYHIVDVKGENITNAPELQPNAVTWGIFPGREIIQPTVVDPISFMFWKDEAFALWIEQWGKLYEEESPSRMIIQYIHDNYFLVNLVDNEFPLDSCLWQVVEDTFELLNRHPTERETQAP

[2] = target: T3, 5,10-methylenetetrahydrofolate reductase (MTHFR) (Homo sapiens, UniProt P42898); assay: HPLC-based enzyme activity assay; also native MS, DSF and aSEC; type: biochemical; conditions: read-out: Inhibition (μM) / SAM Ki (95% CI)
T3 construct: HsMTHFR1–656 (phosphorylated, as purified)

| Structure (SMILES) | differential scanning fluorimetry; aSEC [1] | analytical size exclusion chromatography / DSF (mouse MTHFR) | Ki [2] [µM] |
| --- | --- | --- | --- |
| C[S+](CC[C@H](N)C(=O)[O-])C[C@H]1O[C@@H](n2cnc3c(N)ncnc32)[C@H](O)[C@@H]1O (stereo partly shown) [SAM, S-adenosylmethionine] | p.A368L resulted in protein which retained the ability to bind SAM, but was less sensitive to change | A similar pattern of results were observed when using purified recombinant mouse MTHFR of the same protein boundaries | 2.7 |
| Nc1ncnc2c1ncn2[C@@H]1O[C@H](CSCC[C@H](N)C(=O)O)[C@@H](O)[C@H]1O [SAH, S-adenosylhomocysteine] |  | A similar pattern of results were observed when using purified recombinant mouse MTHFR of the same protein boundaries |  |
